From US4401660A, “Ester derivatives of 5-O-mycaminosyl tylonolide and method of using same” (Eli Lilly and Company, priority 1981, dated 1983)

How the values were obtained:
Format in all cases: cell-based
Parameters in all cases: unit not given here
[1] = tested on: Streptococcus Group D X66; test: MIC, standard agar-dilution assay (Table II)
Protocol: (§1) The MIC's in Table II were determined by standard agar-dilution assays. The MIC's in Table III were obtained using a conventional broth-dilution microtiter test.

[2] = tested on: Staphylococcus aureus X1.1; test: MIC, standard agar-dilution assay (Table II)
Protocol: as §1

[3] = tested on: Streptococcus pyogenes C203; test: MIC, standard agar-dilution assay (Table II)
Protocol: as §1

[4] = tested on: Staphylococcus aureus S13E; test: MIC, standard agar-dilution assay (Table II)
Protocol: as §1

[5] = tested on: Staphylococcus aureus X400; test: MIC, standard agar-dilution assay (Table II); details: Staphylococcus aureus X400, methicillin-resistant strain
Protocol: as §1

[6] = tested on: Staphylococcus epidermidis EPI2; test: MIC, standard agar-dilution assay (Table II)
Protocol: as §1

[7] = tested on: Haemophilus influenzae R252; test: MIC, standard agar-dilution assay (Table II); details: Haemophilus influenzae R252, ampicillin-resistant strain
Protocol: as §1

[8] = tested on: Streptococcus pneumoniae Park I; test: MIC, standard agar-dilution assay (Table II)
Protocol: as §1

[9] = tested on: Staphylococcus aureus V41; test: MIC, standard agar-dilution assay (Table II); details: Staphylococcus aureus V41, penicillin-resistant strain
Protocol: as §1

[10] = tested on: Haemophilus influenzae Holt; test: MIC, standard agar-dilution assay (Table II); details: ampicillin-sensitive strain
Protocol: as §1

[11] = tested on: Streptococcus Group D 9960; test: MIC, standard agar-dilution assay (Table II)
Protocol: as §1

[12] = tested on: Staphylococcus epidermidis EPI1; test: MIC, standard agar-dilution assay (Table II)
Protocol: as §1

[13] = tested on: Pasteurella haemolytica 41D; test: MIC, broth-dilution microtiter test (Table III)
Protocol: as §1

Staphylococcus aureus = test: MIC, broth-dilution microtiter test (Table III)
Protocol: as §1

[14] = tested on: Pasteurella multocida 22A; test: MIC, broth-dilution microtiter test (Table III)
Protocol: as §1

Mycoplasma hyorhinis = test: MIC, broth-dilution microtiter test (Table III)
Protocol: as §1

Mycoplasma synoviae = test: MIC, broth-dilution microtiter test (Table III)
Protocol: as §1

[15] = tested on: Pasteurella haemolytica 23C; test: MIC, broth-dilution microtiter test (Table III)
Protocol: as §1

Streptococcus sp. 80 = test: MIC, broth-dilution microtiter test (Table III)
Protocol: as §1

[16] = tested on: Pasteurella multocida 17E; test: MIC, broth-dilution microtiter test (Table III); details: bovine isolate
Protocol: as §1

Mycoplasma gallisepticum = test: MIC, broth-dilution microtiter test (Table III)
Protocol: as §1

[17] = tested on: Pasteurella haemolytica 22C; test: MIC, broth-dilution microtiter test (Table III)
Protocol: as §1

[18] = tested on: Pasteurella multocida 40G; test: MIC, broth-dilution microtiter test (Table III)
Protocol: as §1

[19] = tested on: Pasteurella multocida 68C; test: MIC, broth-dilution microtiter test (Table III)
Protocol: as §1

[20] = tested on: Pasteurella multocida 60A; test: MIC, broth-dilution microtiter test (Table III); details: avian isolate
Protocol: as §1

Structure (SMILES) | minimal inhibitory concentration (MIC) [1] | minimal inhibitory concentration (MIC) [2] | minimal inhibitory concentration (MIC) [3] | minimal inhibitory concentration (MIC) [4] | minimal inhibitory concentration (MIC) [5] | minimal inhibitory concentration (MIC) [6] | minimal inhibitory concentration (MIC) [8] | minimal inhibitory concentration (MIC) [9] | minimal inhibitory concentration (MIC) [11] | minimal inhibitory concentration (MIC) [12] | minimal inhibitory concentration (MIC) [13] | minimal inhibitory concentration (MIC) (Staphylococcus aureus) | minimal inhibitory concentration (MIC) [14] | minimal inhibitory concentration (MIC) (Mycoplasma hyorhinis) | minimal inhibitory concentration (MIC) (Mycoplasma synoviae) | minimal inhibitory concentration (MIC) [15] | minimal inhibitory concentration (MIC) (Streptococcus sp. 80) | minimal inhibitory concentration (MIC) [16] | minimal inhibitory concentration (MIC) (Mycoplasma gallisepticum) | minimal inhibitory concentration (MIC) [17] | further results
CCC1OC(=O)CC(O)C(C)C(OC2OC(C)C(O)C(N(C)C)C2O)C(CC=O)CC(C)C(=O)C=CC(C)=CC1COC(=O)CCCCc1ccccc1 (centres unmarked) [Compound 61] | 0.25 | 0.25 | 0.25 | 0.25 | 0.25 | 0.25 | 0.06 | 0.25 | 0.25 | 0.25 | 6.25 | 1.56 | 6.25 | 6.25 | 1.56 | 12.5 | 1.56 | 6.25 | 0.78 | 12.5 | minimal inhibitory concentration (MIC) [7]: 2; minimal inhibitory concentration (MIC) [10]: 2; minimal inhibitory concentration (MIC) [18]: 6.25; minimal inhibitory concentration (MIC) [19]: 6.25; minimal inhibitory concentration (MIC) [20]: 3.12
CCC1OC(=O)CC(O)C(C)C(OC2OC(C)C(O)C(N(C)C)C2OC(C)=O)C(CC=O)CC(C)C(=O)C=CC(C)=CC1COC(=O)Cc1ccc([N+](=O)[O-])cc1 (centres unmarked) [Compound 64] | 0.125 | 0.125 | 0.06 | 0.125 | 0.125 | 0.25 | 0.015 | 0.125 | 0.125 | 0.125 | 3.12 | 0.78 | 1.56 | 0.78 | < 0.05 | 3.12 | < 0.05 | 1.56 | 0.097 | 3.12 | minimal inhibitory concentration (MIC) [7]: 1; minimal inhibitory concentration (MIC) [10]: 1; minimal inhibitory concentration (MIC) [18]: 1.56; minimal inhibitory concentration (MIC) [19]: 1.56; minimal inhibitory concentration (MIC) [20]: 1.56
CCC(=O)OC1C(OC2C(CC=O)CC(C)C(=O)C=CC(C)=CC(CO)C(CC)OC(=O)CC(O)C2C)OC(C)C(O)C1N(C)C (centres unmarked) [Compound 2, 2'-O-Propionyl-OMT] | 2 | 2 | 0.5 | 2 | 4 | 1 | 8 | 4 | 2 | 1 | 12.5 | 3.12 | 3.12 | 3.12 | 0.78 | 12.5 | < 0.78 | 3.12 | 0.39 | 12.5 | minimal inhibitory concentration (MIC) [7]: 4; minimal inhibitory concentration (MIC) [10]: 4; minimal inhibitory concentration (MIC) [18]: 6.25; minimal inhibitory concentration (MIC) [19]: 3.12; minimal inhibitory concentration (MIC) [20]: 1.56
CCC1OC(=O)CC(O)C(C)C(OC2OC(C)C(O)C(N(C)C)C2OC(C)=O)C(CC=O)CC(C)C(=O)C=CC(C)=CC1COC(=O)CCCCc1ccccc1 (centres unmarked) [Compound 60] | 0.25 | 0.25 | 0.25 | 0.25 | 0.25 | 0.5 | 0.125 | 0.25 | 0.25 | 0.25 | 6.25 | 0.39 | 3.12 | 6.25 | 0.78 | 6.25 | 0.39 | 3.12 | < 0.05 | 6.25 | minimal inhibitory concentration (MIC) [7]: 2; minimal inhibitory concentration (MIC) [10]: 2; minimal inhibitory concentration (MIC) [18]: 12.5; minimal inhibitory concentration (MIC) [19]: 1.56; minimal inhibitory concentration (MIC) [20]: 3.12
CCC1OC(=O)CC(O)C(C)C(OC2OC(C)C(O)C(N(C)C)C2OC(C)=O)C(CC=O)CC(C)C(=O)C=CC(C)=CC1COC(=O)C(Cl)(Cl)Cl (centres unmarked) [Compound 77] | 1 | 1 | 0.25 | 1 | 2 | 2 | 0.25 | 2 | 1 | 1 | 12.5 | 1.56 | 50 | 3.12 | 0.78 | 12.5 | 0.78 | 3.12 | 0.78 | 12.5 | minimal inhibitory concentration (MIC) [7]: 1; minimal inhibitory concentration (MIC) [18]: 25; minimal inhibitory concentration (MIC) [19]: 25; minimal inhibitory concentration (MIC) [20]: 3.12
CCC1OC(=O)CC(O)C(C)C(OC2OC(C)C(OC(=O)CC(C)C)C(N(C)C)C2OC(C)=O)C(CC=O)CC(C)C(=O)C=CC(C)=CC1COC(=O)CC(C)C (centres unmarked) [Compound 50, 2'-O-Acetyl-4',23-di-O-isovaleryl-OMT] | 1 | 1 | 1 | 1 | 2 | 1 | 0.5 | 2 | 1 | 1 | 25 | 0.39 | 25 | 6.25 | 1.56 | 25 | 0.39 | 12.5 | 0.195 | 25 | minimal inhibitory concentration (MIC) [18]: 3.12; minimal inhibitory concentration (MIC) [19]: 6.25; minimal inhibitory concentration (MIC) [20]: 6.25
CCC1OC(=O)CC(O)C(C)C(OC2OC(C)C(OC(=O)CC(C)C)C(N(C)C)C2OC(C)=O)C(CC=O)CC(C)C(=O)C=CC(C)=CC1COC(C)=O (centres unmarked) [Compound 51, 2',23-Di-O-Acetyl-4'-O-isovaleryl-OMT] | 1 | 1 | 0.25 | 0.5 | 1 | 1 | 0.125 | 1 | 1 | 0.5 | 3.12 | 0.78 | 6.25 | 6.25 | 0.78 | 3.12 | 0.78 | 3.12 | < 0.05 | 3.12 | minimal inhibitory concentration (MIC) [18]: 3.12; minimal inhibitory concentration (MIC) [19]: 3.12; minimal inhibitory concentration (MIC) [20]: 3.12
